In US6867320B2, “Substituted phenylalkanoic acid derivatives and use thereof” (Asahi Kasei Pharma Corporation, priority 2002, dated 2005):

How the values were obtained:
[1] = system: IgE-stimulated footpad edema; experiment: Mouse IgE-stimulated footpad edema reaction; format: in vivo; details: C57BL/6 male mice, oral 0.1 to 500 mg/kg, compared with positive control group
In short: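 Male C57BL/6 mice (9–11 weeks, n=5) sensitised one day earlier by footpad injection of anti-DNP-BSA IgE serum; compound given orally in 0.5% methylcellulose at 0.1 to 500 mg/kg, then DNP-BSA i.v. 2 h later. Footpad swelling measured at 10–30 min, expressed as AUC and % suppression versus vehicle control.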

[2] = system: zymosan-stimulated footpad edema; experiment: Mouse zymosan-stimulated footpad edema reaction; format: in vivo; details: ICR female mice, oral 0.1 to 500 mg/kg, compared with positive control group
In short: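 Female ICR mice (6–7 weeks, n=8) dosed orally at 0.1 to 500 mg/kg in 0.5% methylcellulose; 1 h later zymosan (1 mg/ml, 0.02 ml) injected s.c. into right hind footpad. Edema volume at 1 and 2 h gave AUC to 2 h; suppression (%) calculated against positive control AUC.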

[3] = system: PGD2 production from IgE-stimulated RBL-2H3 cells; experiment: Suppressing action on PGD2 production from IgE-stimulated RBL-2H3 cells; format: cell-based; details: Rattus norvegicus, 10 min, IgE/DNP-BSA stimulated RBL-2H3 cells, read-out: PGD2 production suppression ratio
In short: (§1)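 Rat RBL-2H3 mastocytoma cells, sensitized 30 min with anti-DNP-BSA IgE, then given test compound in 0.5% FBS medium and stimulated with DNP-BSA (100 ng/ml final). Supernatant PGD2 and LTB4 were measured by EIA after 10 min. Suppression ratio is calculated against unstimulated and stimulant-only controls.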

[4] = system: LTB4 production from IgE-stimulated RBL-2H3 cells; experiment: Suppressing action on LTB4 production from IgE-stimulated RBL-2H3 cells; format: cell-based; details: Rattus norvegicus, 10 min, IgE/DNP-BSA stimulated RBL-2H3 cells, read-out: LTB4 production suppression ratio
In short: as §1

[5] = system: PGE2 production from IL-1β-stimulated MG-63 cells; experiment: Suppressing action on PGE2 production from IL-1β-stimulated MG-63 cells; format: cell-based; details: Homo sapiens, IL-1β 1 ng/ml, 18 hours, read-out: PGE2 production suppression ratio
In short: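 PGE2 in 18 h supernatants was quantified by EIA and expressed as % suppression relative to IL-1β-only and unstimulated controls. Cells were the MG-63 osteosarcoma line, plated at 2×10^4/well, given compound in 0.5% FBS EMEM, then 1 ng/ml IL-1β final.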

With Cn1ccc2cc(-c3cc(CCC(=O)O)ccc3OCc3ccccc3Cl)ccc21 [Compound 245, 3-[4-(2-chlorophenylmethyloxy)-3-(1-methyl-1H-indol-5-yl)phenyl]propionic acid] the “suppression of footpad edema caused by IgE stimulation” value (“suppression … by IgE stimulation” for short) [1] was “suppressed the footpad edema”, the “suppression of footpad edema caused by zymosan” value (from here on “suppression … by zymosan”) [2] was “suppressed footpad edema” and the inhibition at 0.4 µM [3] was at least 50%. The inhibition at 0.4 µM [4] was at least 50% and the inhibition at 0.4 µM [5] was at least 50%.
In the case of CCn1ccc2cc(-c3cc(CCC(=O)O)ccc3OC3CCCCC3)ccc21 [Compound 248, 3-[4-cyclohexyloxy-3-(1-ethyl-1H-indol-5-yl)phenyl]propionic acid], the “suppression … by IgE stimulation” value [1] is reported as “suppressed the footpad edema”, the “suppression … by zymosan” value [2] is reported as “suppressed footpad edema” and the inhibition at 0.4 µM [3] is reported as at least 50%. It also gave an inhibition at 0.4 µM [4] of at least 50% and an inhibition at 0.4 µM [5] of at least 50%.
O=C(O)CCc1cc(F)c(OCC2CCCC2)c(-c2ccc3[nH]ccc3c2)c1 [Compound 261, 3-[4-cyclopentylmethyloxy-3-fluoro-5-(1H-indol-5-yl)phenyl]propionic acid] was tested, and the “suppression … by IgE stimulation” value [1] was “suppressed the footpad edema”, the “suppression … by zymosan” value [2] was “suppressed footpad edema” and the inhibition at 0.4 µM [3] was at least 50%. For the same molecule, the inhibition at 0.4 µM [4] was at least 50% and the inhibition at 0.4 µM [5] was at least 50%.
In the case of O=C(O)CCc1ccc(OCC2CCCC2)c(-c2ccc3sccc3c2)c1 [Compound 281, 3-[3-(benzo[b]thiophen-5-yl)-4-cyclopentylmethyloxyphenyl]propionic acid], the “suppression … by IgE stimulation” value [1] is reported as “suppressed the footpad edema”, the “suppression … by zymosan” value [2] is reported as “suppressed footpad edema” and the inhibition at 0.4 µM [3] is reported as at least 50%. For the same molecule, the inhibition at 0.4 µM [4] was at least 50% and the inhibition at 0.4 µM [5] was at least 50%.
Nc1nc2ccc(-c3cc(CCC(=O)O)ccc3OCC3CCCCC3)cc2s1 [Compound 289, 3-[3-(2-aminobenzothiazol-6-yl)-4-cyclohexylmethyloxyphenyl]propionic acid] was tested, and the “suppression … by IgE stimulation” value [1] was “suppressed the footpad edema”, the “suppression … by zymosan” value [2] was “suppressed footpad edema” and the inhibition at 0.4 µM [3] was at least 50%. For the same molecule, the inhibition at 0.4 µM [4] was at least 50% and the inhibition at 0.4 µM [5] was at least 50%.
For Nc1nc2ccc(-c3cc(CCC(=O)O)ccc3OC3CCCC3)cc2s1 [Compound 293, 3-[3-(2-aminobenzothiazol-6-yl)-4-cyclopentyloxyphenyl]propionic acid], the “suppression … by IgE stimulation” value [1] was “suppressed the footpad edema”, the “suppression … by zymosan” value [2] was “suppressed footpad edema” and the inhibition at 0.4 µM [3] was at least 50%. For the same molecule, the inhibition at 0.4 µM [4] was at least 50% and the inhibition at 0.4 µM [5] was at least 50%.
In the case of O=C(O)CCc1ccc(OCC2CCCC2)c(-c2ccc3ncsc3c2)c1 [Compound 299, 3-[3-(benzothiazol-6-yl)-4-cyclopentylmethyloxyphenyl]propionic acid], the “suppression … by IgE stimulation” value [1] is reported as “suppressed the footpad edema”, the “suppression … by zymosan” value [2] is reported as “suppressed footpad edema” and the inhibition at 0.4 µM [3] is reported as at least 50%. For the same molecule, the inhibition at 0.4 µM [4] was at least 50% and the inhibition at 0.4 µM [5] was at least 50%.
O=C(O)CCc1ccc(OCC2CCCCC2)c(-c2cnc3ccccc3c2)c1 [Compound 317, 3-[4-cyclohexylmethyloxy-3-(quinolin-3-yl)phenyl]propionic acid] was tested, and the “suppression … by IgE stimulation” value [1] was “suppressed the footpad edema”, the “suppression … by zymosan” value [2] was “suppressed footpad edema” and the inhibition at 0.4 µM [3] was at least 50%. The inhibition at 0.4 µM [4] was at least 50% and the inhibition at 0.4 µM [5] was at least 50%.
